Measurements taken from ChEMBL document CHEMBL3045111, “Synthesis and herbicidal activities of novel 3-(substituted benzyloxy or phenoxy)-6-methyl-4-(3-trifluoromethylphenyl)pyridazine derivatives” (2012).
Calls of active or inactive are those of the source. The rule behind the calls is not given here.

What was measured:
Digitaria [1] = test: Post-emergence herbicidal activity against one-leaf stage of Digitaria adscendens under greenhouse condition at 750 g /ha measured after 24 days by spray method; assay type: functional; details: in Digitaria adscendens, 576 h, read-out: GI
Amaranthus retroflexus [2] = test: Post-emergence herbicidal activity against one-leaf stage of Amaranthus retroflexus under greenhouse condition at 750 g /ha measured after 24 days by spray method; assay type: functional; details: 576 h, read-out: GI
[3] = system: Brassica rapa subsp. oleifera; test: Post-emergence herbicidal activity against one-leaf stage Brassica rapa subsp. oleifera under greenhouse condition assessed as complete bleaching of leaves at 300 g /ha measured after 24 days by spray method; assay type: functional, organism-based
[4] = system: Brassica rapa subsp. oleifera; test: Post-emergence herbicidal activity against one-leaf stage Brassica rapa subsp. oleifera under greenhouse condition assessed as complete bleaching of leaves at 75 g /ha measured after 24 days by spray method; assay type: functional, organism-based
[5] = system: Brassica rapa subsp. oleifera; test: Post-emergence herbicidal activity against one-leaf stage Brassica rapa subsp. oleifera under greenhouse condition assessed as complete bleaching of leaves at 600 g /ha measured after 24 days by spray method; assay type: functional, organism-based
Amaranthus retroflexus [6] = test: Pre-emergence herbicidal activity against Amaranthus retroflexus under greenhouse condition at 750 g /ha measured after 24 days by spray method; assay type: functional; details: 576 h, read-out: GI
Amaranthus retroflexus [7] = test: Post-emergence herbicidal activity against one-leaf stage Amaranthus retroflexus under greenhouse condition at 300 g /ha measured after 24 days by spray method; assay type: functional; details: 576 h, read-out: GI
Amaranthus retroflexus [8] = test: Post-emergence herbicidal activity against one-leaf stage Amaranthus retroflexus under greenhouse condition at 150 g /ha measured after 24 days by spray method; assay type: functional; details: 576 h, read-out: GI
Amaranthus retroflexus [9] = test: Post-emergence herbicidal activity against one-leaf stage Amaranthus retroflexus under greenhouse condition assessed as complete bleaching of leaves at 300 g /ha measured after 24 days by spray method; assay type: functional, organism-based
Echinochloa crus-galli [10] = test: Pre-emergence herbicidal activity against Echinochloa crus-galli (barnyard grass) under greenhouse condition at 750 g /ha measured after 24 days by spray method; assay type: functional; details: 576 h, read-out: GI
[11] = system: Brassica rapa subsp. oleifera; test: Pre-emergence herbicidal activity against Brassica rapa subsp. oleifera under greenhouse condition at 750 g /ha measured after 24 days by spray method; assay type: functional; details: 576 h, read-out: GI
Amaranthus retroflexus [12] = test: Post-emergence herbicidal activity against one-leaf stage Amaranthus retroflexus under greenhouse condition at 75 g /ha measured after 24 days by spray method; assay type: functional; details: 576 h, read-out: GI
Amaranthus retroflexus [13] = test: Post-emergence herbicidal activity against one-leaf stage Amaranthus retroflexus under greenhouse condition at 600 g /ha measured after 24 days by spray method; assay type: functional; details: 576 h, read-out: GI
Spirodela polyrhiza [14] = test: Bleaching herbicidal activity in Spirodela polyrhiza fronds cultured in compound-containing in medium assessed as chlorophyll inhibition at 1 ug/ml after 7 days; assay type: functional; details: 168 h
Digitaria [15] = test: Pre-emergence herbicidal activity against Digitaria adscendens under greenhouse condition at 750 g /ha measured after 24 days by spray method; assay type: functional; details: in Digitaria adscendens, 576 h, read-out: GI
[16] = system: Brassica rapa subsp. oleifera; test: Post-emergence herbicidal activity against one-leaf stage Brassica rapa subsp. oleifera under greenhouse condition at 75 g /ha measured after 24 days by spray method; assay type: functional; details: 576 h, read-out: GI
[17] = system: Brassica rapa subsp. oleifera; test: Post-emergence herbicidal activity against one-leaf stage Brassica rapa subsp. oleifera under greenhouse condition at 750 g /ha measured after 24 days by spray method; assay type: functional; details: 576 h, read-out: GI
Spirodela polyrhiza [18] = test: Bleaching herbicidal activity in Spirodela polyrhiza fronds cultured in compound-containing in medium assessed as chlorophyll inhibition at 10 ug/ml after 7 days; assay type: functional; details: 168 h
[19] = system: Brassica rapa subsp. oleifera; test: Post-emergence herbicidal activity against one-leaf stage Brassica rapa subsp. oleifera under greenhouse condition at 150 g /ha measured after 24 days by spray method; assay type: functional; details: 576 h, read-out: GI
[20] = system: Brassica rapa subsp. oleifera; test: Post-emergence herbicidal activity against one-leaf stage Brassica rapa subsp. oleifera under greenhouse condition at 300 g /ha measured after 24 days by spray method; assay type: functional; details: 576 h, read-out: GI
Echinochloa crus-galli [21] = test: Post-emergence herbicidal activity against one-leaf stage of Echinochloa crus-galli (barnyard grass) under greenhouse condition at 750 g /ha measured after 24 days by spray method; assay type: functional; details: 576 h, read-out: GI
Amaranthus retroflexus [22] = test: Post-emergence herbicidal activity against one-leaf stage Amaranthus retroflexus under greenhouse condition assessed as complete bleaching of leaves at 150 g /ha measured after 24 days by spray method; assay type: functional, organism-based
Amaranthus retroflexus [23] = test: Post-emergence herbicidal activity against one-leaf stage Amaranthus retroflexus under greenhouse condition assessed as complete bleaching of leaves at 600 g /ha measured after 24 days by spray method; assay type: functional, organism-based
[24] = system: Brassica rapa subsp. oleifera; test: Post-emergence herbicidal activity against one-leaf stage Brassica rapa subsp. oleifera under greenhouse condition at 600 g /ha measured after 24 days by spray method; assay type: functional; details: 576 h, read-out: GI
[25] = system: Brassica rapa subsp. oleifera; test: Post-emergence herbicidal activity against one-leaf stage Brassica rapa subsp. oleifera under greenhouse condition assessed as complete bleaching of leaves at 150 g /ha measured after 24 days by spray method; assay type: functional, organism-based

| SMILES | inhibition of growth at 750 g/ha (Digitaria [1]) | inhibition of growth at 750 g/ha (Amaranthus retroflexus [2]) | Activity [3] | Activity [5] | inhibition of growth at 750 g/ha (Amaranthus retroflexus [6]) | inhibition of growth at 750 g/ha (Echinochloa crus-galli [10]) | inhibition of growth at 750 g/ha [11] | inhibition at 1 µg/mL (Spirodela polyrhiza [14]) | inhibition of growth at 750 g/ha (Digitaria [15]) | inhibition of growth at 750 g/ha [17] | inhibition at 10 µg/mL (Spirodela polyrhiza [18]) | inhibition of growth at 150 g/ha [19] | inhibition of growth at 300 g/ha [20] | inhibition of growth at 750 g/ha (Echinochloa crus-galli [21]) | inhibition of growth at 600 g/ha [24] | Activity [25] | other results |
| --- | --- | --- | --- | --- | --- | --- | --- | --- | --- | --- | --- | --- | --- | --- | --- | --- | --- |
| Cc1cccc(Oc2nnc(C)cc2-c2cccc(C(F)(F)F)c2)c1 | 81% | 55% | Active | Active | 0% | 29% | 3% | 79% | 43% | 100% | 84% | 51% | 63% | 40% | 70% | Active | Activity [4]: Active; inhibition of growth at 300 g/ha (Amaranthus retroflexus [7]): 38%; inhibition of growth at 150 g/ha (Amaranthus retroflexus [8]): 34%; Activity (Amaranthus retroflexus [9]): Active; inhibition of growth at 75 g/ha (Amaranthus retroflexus [12]): 29%; inhibition of growth at 600 g/ha (Amaranthus retroflexus [13]): 43%; inhibition of growth at 75 g/ha [16]: 46%; Activity (Amaranthus retroflexus [22]): Active; Activity (Amaranthus retroflexus [23]): Active |
| Cc1cc(-c2cccc(C(F)(F)F)c2)c(Oc2ccccc2Cl)nn1 | 27% | 84% | Active | Active | 0% | 0% | 9% | 42% | 19% | 100% | 50% | 48% | 67% | 24% | 91% | Active | Activity [4]: Active; inhibition of growth at 300 g/ha (Amaranthus retroflexus [7]): 39%; inhibition of growth at 150 g/ha (Amaranthus retroflexus [8]): 20%; Activity (Amaranthus retroflexus [9]): Active; inhibition of growth at 75 g/ha (Amaranthus retroflexus [12]): 5%; inhibition of growth at 600 g/ha (Amaranthus retroflexus [13]): 65%; inhibition of growth at 75 g/ha [16]: 31%; Activity (Amaranthus retroflexus [23]): Active |
| Cc1cc(-c2cccc(C(F)(F)F)c2)c(OCc2ccccc2)nn1 | 0% | 50% | Active | Active | 38% | 27% | 55% | 62% | 7% | 94% | 82% | 62% | 86% | 29% | 92% | Active | – |
| Cc1cc(-c2cccc(C(F)(F)F)c2)c(OCc2ccccc2Cl)nn1 | 26% | 47% | Active | Active | 40% | 0% | 52% | 59% | 26% | 90% | 93% | 57% | 96% | 16% | 97% | Active | – |
| Cc1cc(-c2cccc(C(F)(F)F)c2)c(OCc2ccccc2C(F)(F)F)nn1 | 8% | 46% | Active | Active | 16% | 17% | 28% | 73% | 2% | 93% | 76% | 38% | 49% | 14% | 92% | Active | – |
| Cc1cc(-c2cccc(C(F)(F)F)c2)c(OCc2cccc(F)c2)nn1 | 0% | 47% | Active | Active | 9% | 18% | 0% | 89% | 10% | 93% | 96% | 30% | 47% | 14% | 66% | Active | – |
| Cc1cc(-c2cccc(C(F)(F)F)c2)c(OCc2ccccc2C)nn1 | 7% | 29% | Active | Active | 36% | 2% | 58% | 62% | 19% | 97% | 86% | 79% | 86% | 55% | 95% | Active | Activity [4]: Active; inhibition of growth at 75 g/ha [16]: 44% |
| Cc1cc(-c2cccc(C(F)(F)F)c2)c(OCc2ccccc2Br)nn1 | 3% | 54% | Active | Active | 21% | 1% | 8% | 93% | 25% | 91% | 100% | 49% | 73% | 0% | 85% | Active | – |
| Cc1cc(C)cc(Oc2nnc(C)cc2-c2cccc(C(F)(F)F)c2)c1 | 0% | 8% | – | – | 10% | 10% | 0% | 42% | 11% | 56% | 63% | – | – | 6% | – | – | – |
| Cc1cc(-c2cccc(C(F)(F)F)c2)c(OCc2cccc(Br)c2)nn1 | 3% | 39% | – | – | 0% | 7% | 0% | 66% | 0% | 65% | 83% | – | – | 4% | – | – | – |
| Cc1ccc(COc2nnc(C)cc2-c2cccc(C(F)(F)F)c2)cc1 | 0% | 22% | – | – | 9% | 28% | 0% | 20% | 4% | 41% | 31% | – | – | 6% | – | – | – |
